# Results as given in patent US20220144815A1, “1,3,4-OXADIAZOLES AND THEIR DERIVATIVES AS NEW ANTIFUNGAL AGENTS” (Bayer Aktiengesellschaft, priority 2018, published 2022).
# Like-named read-outs stand apart in the source and are kept apart here.
# Columns and labels:
# [1] = tested on: Colletotrichum lindemuthianum; assay: Example B: in vitro cell test, spore germination and mycelium growth in liquid culture; type: cell-based; settings: 144 h, 20 ppm of tested compound, 6 days incubation, read-out: efficacy (inhibition of fungal growth)
# How it was run: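 Compounds in DMSO (final ≤1%) added to glucose/peptone/yeast extract liquid medium containing C. lindemuthianum spores. After 6 days incubation, mycelium growth measured spectrometrically; inhibition calculated from absorbance versus compound-free control wells.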
# [2] = Log P by HPLC on reversed phase columns, method [a] (EEC directive 79/831 Annex V.A8); type: physicochemical; settings: reversed phase HPLC column
# How it was run: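 Reversed-phase HPLC with LC-UV detection per EEC directive 79/831 Annex V.A8, acidic eluent of 0.1% formic acid in water and acetonitrile, linear gradient 10% to 95% acetonitrile. Log P derived from retention times, calibrated against straight-chain alkan-2-ones (C3–C16) by linear interpolation.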
# Botrytis cinerea = assay: Example C: in vivo preventive test (grey mould) on gherkin or cabbage; settings: 500 ppm of active ingredient, preventive spray, evaluated 4 to 5 days after inoculation, read-out: efficacy
# Procedure: Solvent: 5% by volume of dimethyl sulfoxide • 10% by volume of acetone Emulsifier: 1 μl of Tween® 80 per mg of active ingredient The tested compounds were made soluble and homogenized in a mixture of dimethyl sulfoxide/acetone/Tween® 80 and then diluted in water to the desired concentration. The young plants of gherkin or cabbage were treated by spraying the tested compound prepared as described above. Control plants were treated only with an aqueous solution of acetone/dimethyl sulfoxide/Tween® 80. After 24 hours, the plants were contaminated by spraying the leaves with an aqueous suspension of Botrytis cinerea spores. The contaminated gherkin plants were incubated for 4 to 5 days at 17° C. and at 90% relative humidity. The contaminated cabbage plants were incubated for 4 to 5 days at 20° C. and at 100% relative humidity. The test was evaluated 4 to 5 days after the inoculation. 0% means an efficacy which corresponds to that of the control plants while an efficacy of 100% means that no disease was observed.
# Puccinia recondita = assay: Example D: in vivo preventive test (brown rust on wheat); settings: 264 h, 500 ppm of tested compound, preventive spray, evaluated 11 days after inoculation, read-out: efficacy
# Procedure: Solvent: 5% by volume of dimethyl sulfoxide • 10% by volume of acetone Emulsifier: 1 μL of Tween® 80 per mg of active ingredient The tested compounds were made soluble and homogenized in a mixture of dimethyl sulfoxide/acetone/Tween® 80 and then diluted in water to the desired concentration. The young plants of wheat were treated by spraying the tested compound prepared as described above. Control plants were treated only with an aqueous solution of acetone/dimethyl sulfoxide/Tween® 80. After 24 hours, the plants were contaminated by spraying the leaves with an aqueous suspension of Puccinia recondita spores. The contaminated wheat plants were incubated for 24 hours at 20° C. and at 100% relative humidity and then for 10 days at 20° C. and at 70-80% relative humidity. The test was evaluated 11 days after the inoculation. 0% means an efficacy which corresponds to that of the control plants while an efficacy of 100% means that no disease was observed.
# Phakopsora pachyrhizi = assay: Example F: in vivo preventive test (soybeans), DMSO/acetone/Tween 80; settings: 288 h, 500 ppm of tested compound, preventive spray, soybean, evaluated 12 days after inoculation, read-out: efficacy
# How it was run: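 Compounds in DMSO/acetone/Tween 80, diluted in water, were sprayed preventively onto young plants, which were spore-inoculated 24 h later. Plants were held 24 h at 24 °C and 100% RH, then 11 days at 24 °C and 70–80% RH. Scored 12 days post-inoculation: 0% = control-level disease, 100% = no disease.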
# Alternaria brassicae = assay: Example E: in vivo preventive test (cabbage); settings: 144 h, 500 ppm of tested compound, preventive spray, evaluated 6 days after inoculation, read-out: efficacy
# How it was run: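 Young cabbage plants sprayed with compound in DMSO/acetone/Tween 80 diluted in water, then inoculated 24 hours later with Alternaria brassicae spore suspension. Kept 6 days at 20° C., 100% relative humidity. Efficacy scored 6 days post-inoculation: 0% as solvent-treated controls, 100% no disease.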
# Phakosporra pachirrhizi = assay: Example A: fungicidal activity, spore germination in 96-well plates; type: cell-based; settings: 4 hours at 21° C., read-out: efficacy (inhibition of the fungal germination); for inhibition at 30 ppm: 30 ppm of active ingredient; for inhibition at 20 ppm: 20 ppm of active ingredient
# Procedure: Cryo-conserved wild-type spores of the biotroph Phakosporra pachirrhizi were humidified in dedicated chamber overnight at 18° C. in the dark. The next day, a solution of spores at 7×10^3 sp/mL was prepared in a water based growth medium (H2O+0.2 mM MOPS at pH 7+0.01% Tween 20) and spores were distributed in a 96-MTPS (final volume of 200 μL per well) thanks to a dispenser robot. Each molecule was tested at 10 doses (from 30 to 0.002 ppm final concentration) and accordingly 1.2 μL of each dilution was transferred in dedicated well to end-up with a final concentration of 0.6% DMSO. Wild-type spores and molecules were incubated for 4 hours at 21° C., and 6 images par well were then acquired with Transmitted Light images (Image Xpress Micro microscope, Molecular Devices, Objective 10×, 6 images per well). Detection and quantification of the number of germinated spores per image was performed with a dedicated in-house developed algorithm (MetaXpress software, Molecular Devices).
# [3] = log P determined according to method [a] (HPLC on reversed phase columns), read-out: logP
# [4] = method [a], HPLC on reversed phase columns, read-out: logP
# [5] = Method A: LC-UV, acidic range, 0.1% formic acid in water and acetonitrile, read-out: Log P
Compound,inhibition of growth at 20 µg/mL [1],"chromatographic logP [2, 3]",pest or weed control at 500 ppm (Botrytis cinerea),pest or weed control at 500 µg/mL (Phakopsora pachyrhizi),pest or weed control at 500 µg/mL (Alternaria brassicae),also measured
"CC(Sc1ncc(-c2nnc(C(F)F)o2)cn1)c1ccccc1 (racemic) [I.123, 5-[5-(difluoromethyl)-1,3,4-oxadiazol-2-yl]-2-{[(1RS)-1-phenylethyl]sulfanyl}pyrimidine]",90 to 100%,3.72,90 to 100%,,,
"Fc1ccc(C(Nc2ncc(-c3nnc(C(F)F)o3)cn2)C(F)(F)F)cc1 (racemic) [I.181, 5-[5-(difluoromethyl)-1,3,4-oxadiazol-2-yl]-N-[(1RS)-2,2,2-trifluoro-1-(4-fluorophenyl)ethyl]pyrimidin-2-amine]",80 to 89%,,70 to 79%,90 to 100%,,"pest or weed control at 500 µg/mL (Puccinia recondita): 90 to 100%; chromatographic logP [2, 4]: 3.22"
"FC(F)c1nnc(-c2cnc(N[C@@H]3C[C@H]3c3ccccc3)nc2)o1 (racemic) [I.196, 5-[5-(difluoromethyl)-1,3,4-oxadiazol-2-yl]-N-[rac-(1R,2S)-2-phenylcyclopropyl]pyrimidin-2-amine]",70 to 79%,,90 to 100%,90 to 100%,90 to 100%,"chromatographic logP [2, 4]: 2.94"
"O=C(O)c1ccc(-c2nnc(C(F)(F)F)o2)cc1 [I.004, 4-[5-(trifluoromethyl)-1,3,4-oxadiazol-2-yl]benzoic acid]",,,,,,inhibition at 30 ppm (Phakosporra pachirrhizi): ≥ 70%
"O=C(O)c1ccc(-c2nnc(C(F)(F)F)s2)cc1 [I.008, 4-[5-(trifluoromethyl)-1,3,4-thiadiazol-2-yl]benzoic acid]",,,,,,"chromatographic logP [2, 5]: 1.41; inhibition at 20 ppm (Phakosporra pachirrhizi): ≥ 70%"
"CCc1noc(-c2ccc(-c3nnc(C(F)(F)F)o3)cc2)n1 [I.018, 3-ethyl-5-{4-[5-(trifluoromethyl)-1,3,4-oxadiazol-2-yl]phenyl}-1,2,4-oxadiazole]",,,,,,"chromatographic logP [2, 5]: 3.59; inhibition at 30 ppm (Phakosporra pachirrhizi): ≥ 70%"
"O=C(Nc1ccc(F)cc1F)c1ccc(-c2nnc(C(F)F)o2)cc1 [I.027, 4-[5-(difluoromethyl)-1,3,4-oxadiazol-2-yl]-N-(2,4-difluorophenyl)benzamide]",,,,,,inhibition at 4 ppm (Phakosporra pachirrhizi; 4 ppm of active ingredient): ≥ 70%
"CC1(C(=O)Nc2ccc(-c3nnc(C(F)F)o3)cn2)CC1 [I.045, N-{5-[5-(difluoromethyl)-1,3,4-oxadiazol-2-yl]pyridin-2-yl}-1-methylcyclopropanecarboxamide]",,,90 to 100%,,90 to 100%,
"FC(F)c1nnc(-c2cnc(Nc3ccccc3)nc2)o1 [I.076, 5-[5-(difluoromethyl)-1,3,4-oxadiazol-2-yl]-N-phenylpyrimidin-2-amine]",,,90 to 100%,,90 to 100%,
"Fc1ccc(-c2ncc(-c3nnc(C(F)F)o3)cn2)cc1 [I.077, 5-[5-(difluoromethyl)-1,3,4-oxadiazol-2-yl]-2-(4-fluorophenyl)pyrimidine]",90 to 100%,,70 to 79%,,,
"Fc1ccccc1Nc1ncc(-c2nnc(C(F)F)s2)cn1 [I.113, 5-[5-(difluoromethyl)-1,3,4-thiadiazol-2-yl]-N-(2-fluorophenyl)pyrimidin-2-amine]",,2.77,90 to 100%,,90 to 100%,
"FC(F)c1nnc(-c2cnc(NC3(c4ccccc4)CCC3)nc2)o1 [I.134, 5-[5-(difluoromethyl)-1,3,4-oxadiazol-2-yl]-N-(1-phenylcyclobutyl)pyrimidin-2-amine]",90 to 100%,,,90 to 100%,,"pest or weed control at 500 µg/mL (Puccinia recondita): 70 to 79%; chromatographic logP [2, 5]: 3.18; inhibition at 20 ppm (Phakosporra pachirrhizi): ≥ 70%"
"FC(F)c1nnc(-c2cnc(NCC3(c4ccccc4)CC3)nc2)o1 [I.135, 5-[5-(difluoromethyl)-1,3,4-oxadiazol-2-yl]-N-[(1-phenylcyclopropyl)methyl]pyrimidin-2-amine]",80 to 89%,3.25,70 to 79%,,90 to 100%,
"Fc1ccccc1C1(Nc2ncc(-c3nnc(C(F)F)o3)cn2)CC1 [I.144, 5-[5-(difluoromethyl)-1,3,4-oxadiazol-2-yl]-N-[1-(2-fluorophenyl)cyclopropyl]pyrimidin-2-amine]",90 to 100%,2.85,,90 to 100%,,pest or weed control at 500 µg/mL (Puccinia recondita): 90 to 100%; inhibition at 20 ppm (Phakosporra pachirrhizi): ≥ 70%
"Fc1ccc(C2(Nc3ncc(-c4nnc(C(F)F)o4)cn3)CC2)cc1 [I.146, 5-[5-(difluoromethyl)-1,3,4-oxadiazol-2-yl]-N-[1-(4-fluorophenyl)cyclopropyl]pyrimidin-2-amine]",70 to 79%,2.75,90 to 100%,90 to 100%,90 to 100%,pest or weed control at 500 µg/mL (Puccinia recondita): 90 to 100%
"FC(F)(F)c1nnc(-c2cnc(NC3(c4ccccc4)CCC3)nc2)o1 [I.160, N-(1-phenylcyclobutyl)-5-[5-(trifluoromethyl)-1,3,4-oxadiazol-2-yl]pyrimidin-2-amine]",80 to 89%,3.84,,90 to 100%,,inhibition at 20 ppm (Phakosporra pachirrhizi): ≥ 70%
"COc1ccccc1CN(OC)c1ncc(-c2nnc(C(F)F)o2)cn1 [I.161, N-{5-[5-(difluoromethyl)-1,3,4-oxadiazol-2-yl]pyrimidin-2-yl}-N-(2-methoxybenzyl)-O-methylhydroxylamine]",,2.97,70 to 79%,,,
"FC(F)c1nnc(-c2cnc(NC3(C4(c5ccccc5)CC4)CC3)nc2)o1 [I.170, 5-[5-(difluoromethyl)-1,3,4-oxadiazol-2-yl]-N-[1′-phenyl[1,1′-bi(cyclopropyl)]-1-yl]pyrimidin-2-amine]",,,70 to 79%,,90 to 100%,"chromatographic logP [2, 4]: 3.64"
